Measured values published in patent publication US8211916B2, “N- and O-substituted 4-[2-(diphenylmethoxy)-ethyl]-1-[(phenyl)methyl]piperidine analogs and methods of treating CNS disorders therewith” (Wayne State University, priority 2000, dated 2012).
Structures can show the parent of a compound that is named as a salt. Where two headings read alike, the source gives them in different places.

Tests used:
DAT = target: T1, DAT (Rattus norvegicus, UniProt P23977); assay: Uptake of [3H]DA by DAT, rat striatum; type: biochemical; conditions: for Ki: [3H]DA uptake, rat striatum
T1 construct: from tissue; host or cells: rat striatum
T1 sequence (P23977 whole entry): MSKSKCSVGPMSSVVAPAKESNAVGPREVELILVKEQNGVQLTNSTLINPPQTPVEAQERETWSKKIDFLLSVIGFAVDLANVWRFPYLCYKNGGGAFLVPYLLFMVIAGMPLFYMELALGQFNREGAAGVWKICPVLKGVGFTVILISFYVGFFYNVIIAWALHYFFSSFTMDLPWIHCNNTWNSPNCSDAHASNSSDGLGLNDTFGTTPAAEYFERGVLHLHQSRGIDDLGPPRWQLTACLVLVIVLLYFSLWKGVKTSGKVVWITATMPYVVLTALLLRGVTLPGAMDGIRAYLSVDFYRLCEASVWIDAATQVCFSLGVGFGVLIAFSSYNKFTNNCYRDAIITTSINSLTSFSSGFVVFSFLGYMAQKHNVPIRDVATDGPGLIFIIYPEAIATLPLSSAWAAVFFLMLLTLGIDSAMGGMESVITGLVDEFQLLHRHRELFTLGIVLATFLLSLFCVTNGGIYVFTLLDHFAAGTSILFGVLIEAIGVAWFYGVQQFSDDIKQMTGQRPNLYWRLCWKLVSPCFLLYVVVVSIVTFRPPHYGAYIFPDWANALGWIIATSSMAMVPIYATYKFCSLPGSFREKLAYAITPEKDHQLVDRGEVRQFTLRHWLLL
Source text: Transporter assays. The affinity of test compounds in binding to rat DAT and in inhibiting monoamine uptake was monitored as described by us previously. […] Rat cerebral cortex was used for assessing uptake of [^3H]serotonin by SERT and hippocampus for uptake of [^3H]NE by NET. […] At lease five triplicate concentrations of each test compound were studied, spaced evenly around the IC50 value. The latter was estimated by nonlinear computer curve-fitting procedures and converted to Ki with the Cheng-Prusoff equation.

rat SERT = target: T2, rat SERT (Rattus norvegicus, UniProt P31652); assay: Rat SERT binding, [3H]citalopram, striatal membranes
T2 construct: from tissue; host or cells: rat striatum (membranes)
T2 sequence (P31652 whole entry): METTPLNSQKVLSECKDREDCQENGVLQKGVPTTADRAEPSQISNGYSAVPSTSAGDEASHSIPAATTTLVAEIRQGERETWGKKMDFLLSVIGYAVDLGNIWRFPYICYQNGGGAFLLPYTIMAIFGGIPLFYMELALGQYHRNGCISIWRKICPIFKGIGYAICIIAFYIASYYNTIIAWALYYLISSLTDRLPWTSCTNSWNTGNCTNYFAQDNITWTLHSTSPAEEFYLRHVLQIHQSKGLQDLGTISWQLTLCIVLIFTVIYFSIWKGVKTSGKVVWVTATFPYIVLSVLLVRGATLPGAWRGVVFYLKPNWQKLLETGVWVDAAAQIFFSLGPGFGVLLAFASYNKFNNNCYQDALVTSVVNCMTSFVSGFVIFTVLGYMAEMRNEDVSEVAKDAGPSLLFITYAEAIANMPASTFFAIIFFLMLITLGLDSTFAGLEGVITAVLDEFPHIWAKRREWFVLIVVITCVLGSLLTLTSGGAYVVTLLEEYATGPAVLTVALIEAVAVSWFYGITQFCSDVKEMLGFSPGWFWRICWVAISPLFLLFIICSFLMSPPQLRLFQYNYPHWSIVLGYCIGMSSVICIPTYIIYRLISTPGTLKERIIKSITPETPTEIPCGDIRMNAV
Experimental: (§1) Briefly, rat striatal membranes were incubated with radioligand and inhibitor for 2 h on ice in a sodium phosphate buffer at a final Na^+ concentration of 30 nM, pH 7.4, at room temperature. The assays were terminated by filtration through glass fiber filtermats (Wallac, Inc., Gaithersburg, Md.), presoaked in 0.05% (v/v) polyethyleneimine, with a MACH3-96 Tomtec harvester (Wallac, Inc.). Filters were assayed for radioactivity in a Microbeta Plus liquid scintillation counter (Wallac, Inc.).

[1] = target: T3, Norepinephrine (NET) Transporter (Rattus norvegicus, UniProt Q63380); assay: NET binding, [3H]nisoxetine
T3 construct: and norepinephrine Transporters in Rat Striatum; from tissue
T3 sequence (Q63380 1-617): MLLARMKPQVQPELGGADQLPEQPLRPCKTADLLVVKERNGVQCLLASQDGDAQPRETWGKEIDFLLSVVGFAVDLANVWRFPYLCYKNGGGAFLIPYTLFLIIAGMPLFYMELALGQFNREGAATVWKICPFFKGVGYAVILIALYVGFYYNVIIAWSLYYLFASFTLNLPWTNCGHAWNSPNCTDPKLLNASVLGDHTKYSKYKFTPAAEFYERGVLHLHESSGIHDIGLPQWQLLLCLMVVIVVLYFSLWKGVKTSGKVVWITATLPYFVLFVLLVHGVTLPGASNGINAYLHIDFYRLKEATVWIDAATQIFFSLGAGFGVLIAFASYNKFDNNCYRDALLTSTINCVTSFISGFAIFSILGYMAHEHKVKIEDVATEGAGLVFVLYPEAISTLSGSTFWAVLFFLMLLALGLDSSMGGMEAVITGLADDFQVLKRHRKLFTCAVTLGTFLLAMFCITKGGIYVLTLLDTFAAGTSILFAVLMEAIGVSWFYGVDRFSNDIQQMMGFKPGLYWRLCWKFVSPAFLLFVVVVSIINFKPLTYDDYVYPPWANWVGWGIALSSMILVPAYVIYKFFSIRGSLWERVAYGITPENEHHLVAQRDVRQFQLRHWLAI

rat DAT = rat DAT (Rattus norvegicus, UniProt P23977); assay: Rat DAT binding, [3H]Win 35,428, striatal membranes
Sequence of rat DAT (P23977 whole entry): as the sequence (P23977 whole entry) above
Experimental: as §1

[2] = target: dopamine transporter (DAT) (Rattus norvegicus, UniProt P23977); assay: biochemical
Sequence of dopamine transporter (DAT) (P23977 whole entry): as above

[3] = read-out: Ki (DAT), inhibition of DA uptake
[4] = Ki (DAT), inhibition of DA uptake

With “1-((5S,8S)-8-benzhydryl-1,4-diazabicyclo[3.3.1]nonane-2-yl)-3-phenylpropan-2-ol [Example 6a]” as the molecule, how does the Ki (DAT; [3]) read?
Its Ki is 0.0829 µM.

Which Ki (DAT; [3]) does the source give for “1-((5S,8S)-8-benzhydryl-1,4-diazabicyclo[3.3.1]nonane-2-yl)-3-phenylpropan-2-ol [Example 6b]” here?
The Ki was 0.0168 µM.

For `Fc1ccc(CN2CCC(CCNC(c3ccccc3)c3ccccc3)CC2)cc1F` (as salt: HCl) [Example 8, 4-[2-((Diphenylmethyl)amino)ethyl]-1-[(3,4-difluorophenyl)methyl]piperidine], which melting point is on record?
The melting point was 280 to 281 °C.

Which melting point does the source give for `Fc1ccc(CN2CCC(CNCC(c3ccccc3)c3ccccc3)CC2)cc1` (as salt: HCl) [Example 11, 4-[[2-(Diphenyl)ethyl]aminomethyl]-1-[(4-fluorophenyl)methyl]piperidine] here?
Its melting point is 126 to 127 °C.

With `Fc1ccc(C(NCC2CCN(CCc3ccccc3)CC2)c2ccc(F)cc2)cc1` (as salt: HCl) [Example 12, 4-[(Bis(4-fluorophenyl)methylamino)methyl]-1-[2-(phenyl)ethyl]piperidine] as the molecule, how does the melting point read?
Its melting point is 214 to 215 °C.

With `Fc1cccc(CN2CCC(CCOC(c3ccccc3)c3ccccc3)CC2)c1` (as salt: oxalate) [Example 1, 4-[2-(Diphenylmethoxy)ethyl]-1-[(3-fluorophenyl)methyl]piperidine] as the molecule, how does the melting point read?
The melting point was 150 to 151 °C.

For `Fc1ccc(CN2CCC(CCOC(c3ccccc3)c3ccccc3)CC2)cc1F` (as salt: oxalate) [Example 2, 4-[2-(Diphenylmethoxy)ethyl]-1-[(3,4-difluorophenyl)methyl]piperidine], which melting point is on record?
The melting point was 158 to 159 °C.

For `N#Cc1ccc(CN2CCC(CCOC(c3ccccc3)c3ccccc3)CC2)cc1` (as salt: oxalate) [Example 4, 4-[2-(Diphenylmethoxy)ethyl]-1-[(4-cyanophenyl)methyl]piperidine], which melting point is on record?
Its melting point is 120 to 121 °C.

Which melting point does the source give for `CS(=O)(=O)Nc1ccc(CN2CCC(CCOC(c3ccccc3)c3ccccc3)CC2)cc1` (as salt: oxalate) [Example 6, 4-[2-(Diphenylmethoxy)ethyl]-1-[((4-methylsulfonylamino)phenyl)methyl]piperidine] here?
The melting point was 122 to 124 °C.

For `Fc1ccc(CN2CCC(CNOC(c3ccccc3)c3ccccc3)CC2)cc1` (as salt: oxalate) [Example 7, 4-[((2-Diphenylmethoxy)amino)methyl]-1-[(4-fluorophenyl)methyl]piperidine], which melting point is on record?
The melting point was 154 to 155 °C.

With `CN(CC1CCN(Cc2ccc(F)cc2)CC1)CC(c1ccccc1)c1ccccc1` (as salt: oxalate) [Example 13] as the molecule, how does the melting point read?
The melting point was 144 to 145 °C.

With `CC(NCCC1CCN(Cc2ccc(F)cc2)CC1)c1ccccc1` (stereo not shown) (as salt: oxalate) [Example 14, 4[2-[(1-(phenyl)ethyl)amino]ethyl]-1-[(4-fluorophenyl)methyl]piperidine] as the molecule, how does the melting point read?
Its melting point is 172 to 173 °C.

Which melting point does the source give for `Ic1ccc(CN2CCC(CCOC(c3ccccc3)c3ccccc3)CC2)cc1` (as salt: oxalate) [Example 19, 4-[2-(diphenylmethoxy)ethyl]-1-[(4-iodophenyl)methyl]piperidine] here?
The melting point was 160 to 161 °C.

For `O=C1CN(Cc2ccc(F)cc2)CCC1CCOC(c1ccccc1)c1ccccc1` (racemic) (as salt: oxalate) (hydrate or solvate) [Example 18, racemic 3-Keto-4-[2-(diphenylmethoxy)ethyl]-1-[(4-fluorophenyl)methyl]piperidine], which melting point is on record?
The melting point was 104 to 109 °C.

With `OC1CN(Cc2ccc(F)cc2)CCC1CCOC(c1ccccc1)c1ccccc1` (racemic) (as salt: oxalate) [Example 16, racemic trans-3-hydroxy-4-[2-diphenylmethoxy)ethyl]-1-[(4-fluorophenyl)methyl]piperidine] as the molecule, how does the melting point read?
Its melting point is 143 to 150 °C.

What does the source list for `OC1CN(Cc2ccc(F)cc2)CCC1CCOC(c1ccccc1)c1ccccc1` (racemic) [Example 16, racemic trans-3-hydroxy-4-[2-diphenylmethoxy)ethyl]-1-[(4-fluorophenyl)methyl]piperidine]?
IC50 (rat SERT): 1110 nM; IC50 ([1]; Table 5, rat striatum, read-out: NET, IC50, nM [3H]nisoxetine): 637 ± 114 nM; IC50 (rat DAT): 0.00596 ± 0.00126 µM

What does the source list for `CCC(=O)OC1CN(Cc2ccc(F)cc2)CCC1CCOC(c1ccccc1)c1ccccc1` (racemic) [Example 17]?
IC50 (rat SERT; Table 5, rat striatum, read-out: SERT, IC50, nM [3H]citalopram): 178 nM; IC50 [1]: 35800 nM; IC50 (rat DAT): 0.583 ± 0.081 µM

With `OC(CCN1CCN2CC1CCC2C(c1ccccc1)c1ccccc1)c1ccc(F)cc1` (single isomer, unassigned) [Example 11a] as the molecule, how does the Ki (DAT; [4]) read?
Its Ki is 0.0418 µM.

With `OC(CCN1CCN2CC1CCC2C(c1ccccc1)c1ccccc1)c1ccc(F)cc1` (single isomer, unassigned) [Example 11b] as the molecule, how does the Ki (DAT; [4]) read?
Its Ki is 0.00863 µM.

What about the NET/DAT (DAT; uptake inhibition selectivity, norepinephrine vs dopamine) of the same molecule?
The NET/DAT was 48.4.

And the SERT/DAT (DAT; uptake inhibition selectivity, serotonin vs dopamine)?
Its SERT/DAT is 172.

With `CC(OCCC1CCN(Cc2ccc(F)cc2)CC1)c1ccccc1` (stereo not shown) [4-[((1-phenylethoxy)ethyl]-1-[(4-fluorophenyl)methyl]piperidine] as the molecule, how does the IC50 (rat SERT; Table 1, read-out: SERT, IC50) read?
The IC50 was 5860 ± 595 nM.

What about the IC50 (rat DAT; read-out: DAT, IC50, Table 1) of the same molecule?
Its IC50 is 0.751 ± 0.0616 µM.

For `Fc1cccc(CN2CCC(CCOC(c3ccccc3)c3ccccc3)CC2)c1` [Example 1, 4-[2-(Diphenylmethoxy)ethyl]-1-[(3-fluorophenyl)methyl]piperidine], which IC50 (rat SERT; Table 1, read-out: SERT, IC50) is on record?
The IC50 was 1150 ± 43.4 nM.

What about the IC50 (rat DAT; read-out: DAT, IC50, Table 1) of the same molecule?
The IC50 was 0.0234 ± 0.0038 µM.

What does the source list for `Fc1ccc(CN2CCC(CCOC(c3ccccc3)c3ccccc3)CC2)cc1F` [Example 2, 4-[2-(Diphenylmethoxy)ethyl]-1-[(3,4-difluorophenyl)methyl]piperidine]?
IC50 (rat SERT; Table 1, read-out: SERT, IC50): 1220 ± 139 nM; IC50 [2]: 0.012 ± 0.00162 µM; SERT/DAT selectivity ratio (rat DAT): 122; IC50 (rat DAT; read-out: DAT, IC50, Table 1): 0.0101 ± 0.0009 µM

Which results are given for `FC(F)(F)c1ccc(CN2CCC(CCOC(c3ccccc3)c3ccccc3)CC2)cc1` [Example 3, 4-[2-(Diphenylmethoxy)ethyl]-1-[((4-trifluoromethyl)phenyl)methyl]piperidine]?
IC50 (rat SERT; Table 1, read-out: SERT, IC50): 2260 ± 144 nM; IC50 (rat DAT; read-out: DAT, IC50): 0.0321 ± 0.0021 µM

Which IC50 (rat SERT; Table 1, read-out: SERT, IC50) does the source give for `Oc1cccc(CN2CCC(CCOC(c3ccccc3)c3ccccc3)CC2)c1` [Example 3-OH, 4-[2-(diphenylmethoxy)ethyl]-1-[(3-hydroxyphenyl)methyl]piperidine] here?
The IC50 was 984 ± 94 nM.

What about the IC50 ([1]; Table 1, read-out: NET, IC50) of the same molecule?
The IC50 was 678 ± 13 nM.

What about the IC50 (rat DAT; read-out: DAT, IC50, Table 1) of the same molecule?
The IC50 was 0.0143 ± 0.0037 µM.

What does the source list for `N#Cc1ccc(CN2CCC(CCOC(c3ccccc3)c3ccccc3)CC2)cc1` [Example 4, 4-[2-(Diphenylmethoxy)ethyl]-1-[(4-cyanophenyl)methyl]piperidine]?
IC50 (rat SERT; read-out: SERT, IC50): 2280 ± 470 nM; IC50 [2]: 0.00458 ± 0.0008 µM; SERT/DAT selectivity ratio (rat DAT): 615; IC50 (rat DAT; read-out: IC50 for the dopamine transporter): 0.0037 µM

With `O[C@@H](CN[C@H]1CC[C@@H](C(c2ccccc2)c2ccccc2)NC1)Cc1ccccc1` [Example 4c, (R)-1-[(3S,6S)-6-benzhydrylpiperidin-3-ylamino)-3-phenylpropan-2-ol] as the molecule, how does the Ki (DAT; [3]) read?
Its Ki is 0.025 µM.

Which Ki (DAT; [3]) does the source give for `O[C@H](CN[C@H]1CC[C@@H](C(c2ccccc2)c2ccccc2)NC1)Cc1ccccc1` [Example 4d, (S)-1-[(3S,6S)-6-benzhydrylpiperidin-3-ylamino)-3-phenylpropan-2-ol] here?
Its Ki is 0.0253 µM.

Which IC50 (rat SERT; Table 1, read-out: SERT, IC50) does the source give for `O=C(Cc1ccccc1)N1CCC(CCOC(c2ccccc2)c2ccccc2)CC1` [Example 5, 4-[2-(Diphenylmethoxy)ethyl]-1-[(phenylmethyl)carbonyl]piperidine] here?
Its IC50 is over 1000 nM.

What about the IC50 (rat DAT; read-out: DAT, IC50) of the same molecule?
Its IC50 is 2.16 ± 0.054 µM.

What does the source list for `CS(=O)(=O)Nc1ccc(CN2CCC(CCOC(c3ccccc3)c3ccccc3)CC2)cc1` [Example 6, 4-[2-(Diphenylmethoxy)ethyl]-1-[((4-methylsulfonylamino)phenyl)methyl]piperidine]?
IC50 (rat SERT; Table 1, read-out: SERT, IC50): 586 ± 29.2 nM; IC50 [2]: 0.0097 ± 0.0012 µM; IC50 (rat DAT; read-out: DAT, IC50, Table 1): 0.0266 ± 0.0014 µM

Which Ki (DAT; [4]) does the source give for `OC(CN1CCN2CC1CCC2C(c1ccccc1)c1ccccc1)c1ccc(F)cc1` [Example 7c, (R)-2-((5S,8S)-8-benzhydryl-1,4-diazabicyclo[3.3.1]nonane-2-yl)-1-4-fluorophenyl)ethanol] here?
Its Ki is 0.0665 µM.

For `Fc1ccc(CN2CCC(CCNC(c3ccccc3)c3ccccc3)CC2)cc1F` [Example 8, 4-[2-((Diphenylmethyl)amino)ethyl]-1-[(3,4-difluorophenyl)methyl]piperidine], which IC50 (rat SERT; Table 1, read-out: SERT, IC50) is on record?
The IC50 was 1590 ± 160 nM.

And the IC50 ([1]; Table 1, read-out: NET, IC50)?
The IC50 was 1030 nM.

And the IC50 [2]?
Its IC50 is 0.0107 ± 0.0018 µM.

For `c1ccc(CN2CCC(CCNC(c3ccccc3)c3ccccc3)CC2)cc1` [Example 9], which IC50 (rat SERT; Table 1, read-out: SERT, IC50) is on record?
Its IC50 is 1560 ± 208 nM.

What about the IC50 ([1]; Table 1, read-out: NET, IC50) of the same molecule?
Its IC50 is 2620 nM.

And the IC50 [2]?
The IC50 was 0.0206 ± 0.0025 µM.

For `CN(CCC1CCN(Cc2ccccc2)CC1)C(c1ccccc1)c1ccccc1` [Example 10, 4-[2-((Diphenylmethyl)-N-methylamino)ethyl]-1-(4-phenylmethyl)piperidine], which IC50 (rat SERT; Table 1, read-out: SERT, IC50) is on record?
The IC50 was 1660 ± 469 nM.

What about the IC50 (rat DAT; read-out: DAT, IC50, Table 1) of the same molecule?
The IC50 was 0.213 ± 0.003 µM.

With `Fc1ccc(C(NCC2CCN(CCc3ccccc3)CC2)c2ccc(F)cc2)cc1` [Example 12, 4-[(Bis(4-fluorophenyl)methylamino)methyl]-1-[2-(phenyl)ethyl]piperidine] as the molecule, how does the IC50 (rat SERT; Table 1, read-out: SERT, IC50) read?
Its IC50 is 1100 ± 246 nM.

What about the IC50 (rat DAT; read-out: DAT, IC50) of the same molecule?
The IC50 was 0.0653 ± 0.0032 µM.

For `CN(CC1CCN(Cc2ccc(F)cc2)CC1)CC(c1ccccc1)c1ccccc1` [Example 13], which IC50 (rat SERT; Table 1, read-out: SERT, IC50) is on record?
Its IC50 is 2520 ± 230 nM.

What about the IC50 (rat DAT; read-out: DAT, IC50, Table 1) of the same molecule?
The IC50 was 0.094 ± 0.0125 µM.

Which IC50 (rat SERT; Table 1, read-out: SERT, IC50) does the source give for `CC(NCCC1CCN(Cc2ccc(F)cc2)CC1)c1ccccc1` (stereo not shown) [Example 14, 4[2-[(1-(phenyl)ethyl)amino]ethyl]-1-[(4-fluorophenyl)methyl]piperidine] here?
The IC50 was 963 ± 38.5 nM.

And the IC50 (rat DAT; read-out: DAT, IC50, Table 1)?
Its IC50 is 0.295 ± 0.0409 µM.

What does the source list for `Ic1ccc(CN2CCC(CCOC(c3ccccc3)c3ccccc3)CC2)cc1` [Example 19, 4-[2-(diphenylmethoxy)ethyl]-1-[(4-iodophenyl)methyl]piperidine]?
IC50 (rat SERT; Table 1, read-out: SERT, IC50): 2920 ± 432 nM; IC50 ([1]; Table 1, read-out: NET, IC50): 1150 ± 116 nM; IC50 (rat DAT; read-out: DAT, IC50, Table 1): 0.00096 ± 0.00016 µM
